What follows are cell lines tested with CN1CCN(CC1)C2=CC(=C(C=C2)NC3=NC(=C(S3)C(=O)C4=C(C=CC=C4Cl)Cl)N)OC [XMD14-99] + C[C@]1(O)C[C@@H](c2nc(-c3ccc4ccc(-c5ccccc5)nc4c3)c3c(N)nccn32)C1 [Linsitinib] (partner 1 µM) (assay: relative viability (nuclei count vs DMSO), 5 days (fraction); higher = more cells survive). Settings: first compound 0.08 µM.
Outline: (§1)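 Lung cancer cell lines in 1536-well plates were dosed by pin tool the day after seeding, either with one drug alone or with a fixed anchor-drug dose plus five library-drug doses (not always all listed) in √10 steps. After 5 days, cells were fixed and their nuclei stained in one step (final 0.05% Triton X-100, 1% formaldehyde, 1 ug/ml Hoechst), then counted on 4× images. Relative viability is the nuclei count in treated wells divided by that in vehicle wells. Values are medians of duplicate plates.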
SK-LU-1 showed a relative viability of 0.872. With ABC-1 the relative viability was 0.906. In the case of NCI-H358, the relative viability is reported as 0.703. NCI-H661 gave a relative viability of 0.5. RERF-LC-KJ gave a relative viability of 0.878.

Same assay, conditions: first compound 0.8 µM
For SK-LU-1, the relative viability was 1.2. Cell Line ABC-1 has a relative viability of 0.707. With NCI-H358 the relative viability was 0.673. Work on NCI-H661 yielded a relative viability of 0.58. RERF-LC-KJ showed a relative viability of 0.888.

Same assay, conditions: first compound 2.53 µM
In the case of SK-LU-1, the relative viability is reported as 1.07. ABC-1 showed a relative viability of 0.659. NCI-H358 showed a relative viability of 0.557. NCI-H661 gave a relative viability of 0.502. RERF-LC-KJ gave a relative viability of 0.873.

Same assay, conditions: first compound 8 µM
SK-LU-1 gave a relative viability of 0.671. Cell Line ABC-1 has a relative viability of 0.642. For NCI-H358, the relative viability was 0.29. NCI-H661 was tested, and the relative viability was 0.441. In the case of RERF-LC-KJ, the relative viability is reported as 0.743.

What follows are cell lines tested with N[C@@H]1CCCN(c2c(/C=C3\SC(=O)NC3=O)cccc2-c2ccccc2)C1 [AZD1208] + COc1cccc2cc(-c3nc([C@H]4CC[C@H](C(=O)O)CC4)n4ncnc(N)c34)[nH]c12 [OSI-027] (partner 0.5 µM) in the same assay as above. Settings: first compound 0.08 µM.
Outline: as §1
SK-LU-1 showed a relative viability of 0.283. With ABC-1 the relative viability was 0.417. NCI-H358 showed a relative viability of 0.649. NCI-H661 was tested, and the relative viability was 0.613. RERF-LC-KJ showed a relative viability of 0.511.

Same assay, conditions: first compound 0.253 µM
For SK-LU-1, the relative viability was 0.337. For ABC-1, the relative viability was 0.444. With NCI-H358 the relative viability was 0.738. Work on NCI-H661 yielded a relative viability of 0.714. For RERF-LC-KJ, the relative viability was 0.558.

Same assay, conditions: first compound 0.8 µM
In the case of SK-LU-1, the relative viability is reported as 0.285. For ABC-1, the relative viability was 0.487. NCI-H358 showed a relative viability of 0.626. NCI-H661 gave a relative viability of 0.648. RERF-LC-KJ gave a relative viability of 0.512.

Same assay, conditions: first compound 2.53 µM
Work on SK-LU-1 yielded a relative viability of 0.316. In the case of ABC-1, the relative viability is reported as 0.377. Cell Line NCI-H358 has a relative viability of 0.695. NCI-H661 was tested, and the relative viability was 0.657. In the case of RERF-LC-KJ, the relative viability is reported as 0.518.

Same assay, conditions: first compound 8 µM
SK-LU-1 showed a relative viability of 0.248. Work on ABC-1 yielded a relative viability of 0.436. NCI-H358 was tested, and the relative viability was 0.472. Work on NCI-H661 yielded a relative viability of 0.663. Work on RERF-LC-KJ yielded a relative viability of 0.41.

These cell lines were tested with CN1CCN(CC1)C2=CC(=C(C=C2)NC3=NC(=C(S3)C(=O)C4=C(C=CC=C4Cl)Cl)N)OC [XMD14-99] + CS(=O)(=O)CCNCc1ccc(-c2ccc3ncnc(Nc4ccc(OCc5cccc(F)c5)c(Cl)c4)c3c2)o1 [Lapatinib] (partner 2 µM) in the same assay as above. Settings: first compound 0.08 µM.
Outline: as §1
For SK-LU-1, the relative viability was 0.969. ABC-1 was tested, and the relative viability was 1.05. For NCI-H358, the relative viability was 0.45. NCI-H661 was tested, and the relative viability was 0.391. RERF-LC-KJ gave a relative viability of 0.849.

Same assay, conditions: first compound 0.8 µM
SK-LU-1 gave a relative viability of 0.841. For ABC-1, the relative viability was 1.18. Cell Line NCI-H358 has a relative viability of 0.45. Cell Line NCI-H661 has a relative viability of 0.521. Cell Line RERF-LC-KJ has a relative viability of 0.837.

Same assay, conditions: first compound 2.53 µM
For SK-LU-1, the relative viability was 0.74. In the case of ABC-1, the relative viability is reported as 1.17. NCI-H358 was tested, and the relative viability was 0.317. NCI-H661 gave a relative viability of 0.425. Work on RERF-LC-KJ yielded a relative viability of 0.799.

Same assay, conditions: first compound 8 µM
Work on SK-LU-1 yielded a relative viability of 0.565. With ABC-1 the relative viability was 1.05. For NCI-H358, the relative viability was 0.231. NCI-H661 gave a relative viability of 0.402. RERF-LC-KJ was tested, and the relative viability was 0.829.

The cell lines below were run with CN1CCN(CC1)C2=CC(=C(C=C2)NC3=NC(=C(S3)C(=O)C4=C(C=CC=C4Cl)Cl)N)OC [XMD14-99] + C[C@@H](Oc1cc(-c2cnn(C3CCNCC3)c2)cnc1N)c1c(Cl)ccc(F)c1Cl [Crizotinib] (partner 1 µM) in the same assay as above. Settings: first compound 0.08 µM.
Outline: as §1
SK-LU-1 showed a relative viability of 0.788. ABC-1 showed a relative viability of 1. In the case of NCI-H358, the relative viability is reported as 0.661. Work on NCI-H661 yielded a relative viability of 0.897. With RERF-LC-KJ the relative viability was 0.891.

Same assay, conditions: first compound 0.8 µM
SK-LU-1 was tested, and the relative viability was 0.923. Work on ABC-1 yielded a relative viability of 1.07. Cell Line NCI-H358 has a relative viability of 0.733. RERF-LC-KJ was tested, and the relative viability was 0.836.

Same assay, conditions: first compound 2.53 µM
SK-LU-1 gave a relative viability of 0.796. For ABC-1, the relative viability was 1.04. Cell Line NCI-H358 has a relative viability of 0.576. Cell Line NCI-H661 has a relative viability of 0.894. For RERF-LC-KJ, the relative viability was 0.845.

Same assay, conditions: first compound 8 µM
SK-LU-1 was tested, and the relative viability was 0.58. ABC-1 gave a relative viability of 0.802. With NCI-H358 the relative viability was 0.302. NCI-H661 gave a relative viability of 0.838. RERF-LC-KJ was tested, and the relative viability was 0.699.

From the supplement of paper PMC10307832
